Measured values: US11965039B2, “Compstatin analogues and their medical uses” (priority 2018, dated 2024)
Read-outs that look alike come from different tables or passages of the source. Positions of bridges follow the written chain, without caps; N, C: chain ends. Non-standard residues stand in square brackets, D forms with d. Residues, ends and D or L forms follow the SMILES beside them. Trp(1-Me) = Cn1cc(C[C@H](N)C(=O)O)c2ccccc21; Sar = CNCC(=O)O

Key:
[1] = test system: classical complement pathway; assay: In vitro haemolysis assay (inhibition of classical complement pathway); type: cell-based, human; details: human serum, sensitized sheep red blood cells
Outline: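 Compound dilutions preincubated 15 min at room temperature with diluted human serum (titrated per batch for 70-90% maximal haemolysis), then antibody-sensitized sheep RBC (10^7/well) added for 30 min at 37 °C in Tris/casein buffer, pH 7.4. Stopped with EDTA; haemolysis read at 405 nm; IC50 by 4PL fit.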

[2] = Solubility test at 10 mg/mL (visual inspection and light scattering); type: physicochemical
[3] = Table 3, given as upper bounds, read-out: IC50, inhibition of hemolysis

Compound | IC50 [1, 3] [nM] | Solubility, Condition 1 ([2]; Acetate pH 4) | Solubility, Condition 2 ([2]; Acetate pH 5) | Solubility, Condition 3 ([2]; Phosphate pH 6) | Solubility, Condition 4 ([2]; Phosphate pH 7) | Solubility, Condition 5 ([2]; Phosphate pH 7.5) | IC50 ([1]; Table 4, valine 3 vs isoleucine 3 pairs, read-out: CP hemolysis IC50) [nM] | Solubility, condition 4 ([2]; Phosphate pH 7) | Solubility, condition 5 ([2]; Phosphate pH 7.5) | Solubility, Condition 1 ([2]; acetate pH 4.0, visual inspection and absorbance) | Solubility, Condition 2 ([2]; acetate pH 5.0, visual inspection and absorbance) | Solubility, Condition 3 ([2]; phosphate pH 6.0, visual inspection and absorbance)
CC[C@H](C)[C@@H]1NC(=O)[C@@H](NC(=O)[C@H](Cc2ccccc2)NC(=O)[C@H](CCC(=O)O)NC(=O)[C@H](CO)NC(C)=O)CSSC[C@@H](C(=O)N[C@H](C(=O)N[C@@H](CCC(=O)O)C(=O)N[C@@H](C)C(N)=O)[C@@H](C)O)NC(=O)[C@H](CCCNC(=N)N)NC(=O)[C@H](Cc2c[nH]cn2)NC(=O)[C@H](CCC(=O)O)NC(=O)CN(C)C(=O)[C@H](Cc2c[nH]c3ccccc23)NC(=O)[C@H](CC(=O)O)NC(=O)[C@H](CCC(N)=O)NC(=O)[C@H](Cc2cn(C)c3ccccc23)NC1=O [Compound 77, Ac-SEFC(1)I[1-Me-Trp]QDW[Sar]EHRC(1)TEA-NH2] (Ac-SEFCI[Trp(1-Me)]QDW[Sar]EHRCTEA-NH2; disulfide 4-14) | < 100 | − (“−” denotes lack of solubility at the given condition, as UV absorbance at 340 nm exceeds 0.1 AU and/or it is visibly turbid or contains particles) | − (“−” denotes lack of solubility at the given condition, as UV absorbance at 340 nm exceeds 0.1 AU and/or it is visibly turbid or contains particles) | + (“+” denotes solubility at the given condition, as determined by UV absorbance being less than 0.1 AU at 340 nm and the sample being clear when manually inspected) | + (“+” denotes solubility at the given condition, as determined by UV absorbance being less than 0.1 AU at 340 nm and the sample being clear when manually inspected) | + (“+” denotes solubility at the given condition, as determined by UV absorbance being less than 0.1 AU at 340 nm and the sample being clear when manually inspected) |  |  |  |  |  | 
CC[C@H](C)[C@H](NC(C)=O)C(=O)N[C@H]1CSSC[C@@H](C(=O)N[C@H](C(=O)N[C@@H](CCC(=O)O)C(=O)NCC(=O)N[C@@H](CCC(=O)O)C(N)=O)[C@@H](C)O)NC(=O)[C@H](CCCNC(=N)N)NC(=O)[C@H](Cc2c[nH]cn2)NC(=O)[C@H](CCC(=O)O)NC(=O)CNC(=O)[C@H](Cc2c[nH]c3ccccc23)NC(=O)[C@H](CC(=O)O)NC(=O)[C@H](CCC(N)=O)NC(=O)[C@H](Cc2c[nH]c3ccccc23)NC(=O)[C@H]([C@@H](C)CC)NC1=O [Compound 24] (Ac-ICIWQDWGEHRCTEGE-NH2; disulfide 2-12) | < 100 | − (“−” denotes lack of solubility at the given condition, as UV absorbance at 340 nm exceeds 0.1 AU and/or it is visibly turbid or contains particles) | − (“−” denotes lack of solubility at the given condition, as UV absorbance at 340 nm exceeds 0.1 AU and/or it is visibly turbid or contains particles) | − (“−” denotes lack of solubility at the given condition, as UV absorbance at 340 nm exceeds 0.1 AU and/or it is visibly turbid or contains particles) | + (“+” denotes solubility at the given condition, as determined by UV absorbance being less than 0.1 AU at 340 nm and the sample being clear when manually inspected) | + (“+” denotes solubility at the given condition, as determined by UV absorbance being less than 0.1 AU at 340 nm and the sample being clear when manually inspected) | 90 | good | good | cloudy | cloudy | cloudy
CC[C@H](C)[C@@H]1NC(=O)[C@@H](NC(=O)[C@@H](NC(=O)[C@H](CCC(=O)O)NC(=O)[C@H](CO)NC(=O)[C@H](CCC(=O)O)NC(C)=O)[C@@H](C)CC)CSSC[C@@H](C(=O)N[C@H](C(N)=O)[C@@H](C)O)NC(=O)[C@H](CCCNC(=N)N)NC(=O)[C@H](Cc2c[nH]cn2)NC(=O)[C@H](CCC(=O)O)NC(=O)CNC(=O)[C@H](Cc2c[nH]c3ccccc23)NC(=O)[C@H](CC(=O)O)NC(=O)[C@H](CCC(N)=O)NC(=O)[C@H](Cc2c[nH]c3ccccc23)NC1=O [Compound 31] (Ac-ESEICIWQDWGEHRCT-NH2; disulfide 5-15) | < 100 | + (“+” denotes solubility at the given condition, as determined by UV absorbance being less than 0.1 AU at 340 nm and the sample being clear when manually inspected) | + (“+” denotes solubility at the given condition, as determined by UV absorbance being less than 0.1 AU at 340 nm and the sample being clear when manually inspected) | + (“+” denotes solubility at the given condition, as determined by UV absorbance being less than 0.1 AU at 340 nm and the sample being clear when manually inspected) | + (“+” denotes solubility at the given condition, as determined by UV absorbance being less than 0.1 AU at 340 nm and the sample being clear when manually inspected) | + (“+” denotes solubility at the given condition, as determined by UV absorbance being less than 0.1 AU at 340 nm and the sample being clear when manually inspected) |  |  |  |  |  | 
CC[C@H](C)[C@@H]1NC(=O)[C@@H](NC(=O)[C@H](Cc2ccccc2)NC(=O)[C@H](C)NC(=O)[C@H](CO)NC(=O)CNC(=O)[C@H](CCC(=O)O)NC(C)=O)CSSC[C@@H](C(=O)N(C)CC(=O)N[C@@H](CCC(=O)O)C(N)=O)NC(=O)[C@H](CCCNC(=N)N)NC(=O)[C@H](Cc2c[nH]cn2)NC(=O)[C@H](CCC(=O)O)NC(=O)CNC(=O)[C@H](Cc2c[nH]c3ccccc23)NC(=O)[C@H](CC(=O)O)NC(=O)[C@H](CCC(N)=O)NC(=O)[C@H](Cc2cn(C)c3ccccc23)NC1=O [Compound 53] (Ac-EGSAFCI[Trp(1-Me)]QDWGEHRC[Sar]E-NH2; disulfide 6-16) | < 100 | − (“−” denotes lack of solubility at the given condition, as UV absorbance at 340 nm exceeds 0.1 AU and/or it is visibly turbid or contains particles) | − (“−” denotes lack of solubility at the given condition, as UV absorbance at 340 nm exceeds 0.1 AU and/or it is visibly turbid or contains particles) | + (“+” denotes solubility at the given condition, as determined by UV absorbance being less than 0.1 AU at 340 nm and the sample being clear when manually inspected) | + (“+” denotes solubility at the given condition, as determined by UV absorbance being less than 0.1 AU at 340 nm and the sample being clear when manually inspected) | + (“+” denotes solubility at the given condition, as determined by UV absorbance being less than 0.1 AU at 340 nm and the sample being clear when manually inspected) |  |  |  |  |  | 
CC[C@H](C)[C@H](NC(C)=O)C(=O)N[C@H]1CSSC[C@@H](C(=O)N[C@H](C(=O)NCC(=O)N[C@@H](C)C(=O)N[C@@H](CCC(=O)O)C(=O)N[C@@H](CO)C(N)=O)[C@@H](C)O)NC(=O)[C@H](CCCNC(=N)N)NC(=O)[C@H](Cc2c[nH]cn2)NC(=O)[C@H](CCC(=O)O)NC(=O)CNC(=O)[C@H](Cc2c[nH]c3ccccc23)NC(=O)[C@H](CC(=O)O)NC(=O)[C@H](CCC(N)=O)NC(=O)[C@H](Cc2cn(C)c3ccccc23)NC(=O)[C@H]([C@@H](C)CC)NC1=O [Compound 51] (Ac-ICI[Trp(1-Me)]QDWGEHRCTGAES-NH2; disulfide 2-12) | < 100 | − (“−” denotes lack of solubility at the given condition, as UV absorbance at 340 nm exceeds 0.1 AU and/or it is visibly turbid or contains particles) | − (“−” denotes lack of solubility at the given condition, as UV absorbance at 340 nm exceeds 0.1 AU and/or it is visibly turbid or contains particles) | + (“+” denotes solubility at the given condition, as determined by UV absorbance being less than 0.1 AU at 340 nm and the sample being clear when manually inspected) | + (“+” denotes solubility at the given condition, as determined by UV absorbance being less than 0.1 AU at 340 nm and the sample being clear when manually inspected) | + (“+” denotes solubility at the given condition, as determined by UV absorbance being less than 0.1 AU at 340 nm and the sample being clear when manually inspected) |  |  |  |  |  | 
CC[C@H](C)[C@H](NC(=O)[C@H](C)NC(=O)[C@H](CO)NC(C)=O)C(=O)N[C@H]1CSSC[C@@H](C(=O)N(C)CC(=O)N[C@@H](CCC(=O)O)C(N)=O)NC(=O)[C@H](CCCNC(=N)N)NC(=O)[C@H](Cc2c[nH]cn2)NC(=O)[C@H](CCC(=O)O)NC(=O)CNC(=O)[C@H](Cc2c[nH]c3ccccc23)NC(=O)[C@H](CC(=O)O)NC(=O)[C@H](CCC(N)=O)NC(=O)[C@H](Cc2c[nH]c3ccccc23)NC(=O)[C@H]([C@@H](C)CC)NC1=O [Compound 41] (Ac-SAICIWQDWGEHRC[Sar]E-NH2; disulfide 4-14) | < 250 | − (“−” denotes lack of solubility at the given condition, as UV absorbance at 340 nm exceeds 0.1 AU and/or it is visibly turbid or contains particles) | − (“−” denotes lack of solubility at the given condition, as UV absorbance at 340 nm exceeds 0.1 AU and/or it is visibly turbid or contains particles) | + (“+” denotes solubility at the given condition, as determined by UV absorbance being less than 0.1 AU at 340 nm and the sample being clear when manually inspected) | + (“+” denotes solubility at the given condition, as determined by UV absorbance being less than 0.1 AU at 340 nm and the sample being clear when manually inspected) | + (“+” denotes solubility at the given condition, as determined by UV absorbance being less than 0.1 AU at 340 nm and the sample being clear when manually inspected) |  |  |  |  |  | 
